Source: patent US11142524B2, “Substituted-3H-imidazo[4,5-c]pyridine and 1H-pyrrolo[2,3-c]pyridine series of novel Ectonucleotide Pyrophosphatase/Phosphodiesterase-1 (ENPP1) and stimulator for interferon genes (STING) modulators as cancer immunotherapeutics” (Stingray Therapeutics, Inc., priority 2018, dated 2021)
Where a name gives a salt, the structure may show the parent alone. Read-outs that look alike come from different tables or passages of the source.

Key:
[1] = target: T1, Recombinant Human ENPP-1 Protein (purified in-house) (Homo sapiens (Human), UniProt P22413); assay: ENPP1 Assay (ATP), Example 2; format: biochemical
Method: Assay Buffer: 1 mM CaCl2, 0.2 mM ZnCl2, 50 mM Tris, pH 9.0. Substrate: 100 μM Adenosine 5′-triphosphate disodium salt hydrate (Promega: V703A)—Assay Conc.: 10 μM. Enzyme: 1 ng/μL Recombinant Human ENPP-1 Protein (purified in-house)—Assay Conc.: 5 ng/well of DMSO in 96-well white assay plates. Cell Titer Glo (Promega, cat #G7572).
A ten point serial dilution of drugs was prepared in 10× in assay buffer with the final assay concentrations starting at 10 μM, 3 μM, 1 μM, 0.3 μM . . . 0 μM. A dilution of DMSO was included as a control. The assay plate was set up as follows with each well in duplicate: 75 μL assay buffer+10 μL ENPP1 inhibitor or DMSO Dilutions+10 μL Substrate+5 μL Enzyme (5 ng). Both the enzyme and substrate were added to opposite sides of the well to ensure that there was no interaction until all wells had both components. The plate was then centrifuged gently for 10 seconds, followed by incubation at RT for 20 minutes. To detect levels of ATP, Cell Titer Glo was added 1:1 to each well and incubated for 10 minutes. The reaction was quantified by measuring luminescence using the Envision Plate Reader.

[2] = target: T1, Recombinant Human ENPP-1 Protein (purified in-house); assay: ENPP1 Assay (TMP), Example 2; format: biochemical
Method: Enzyme: 1 ng/μL Recombinant Human ENPP-1 Protein (purified in-house)—Assay Conc.: 5 ng/well of DMSO in 96-well clear assay plates.
(§1) A ten point serial dilution of drugs was prepared in 10× in assay buffer with the final assay concentrations starting at 10 μM, 3 μM, 1 μM, 0.3 μM . . . 0 μM. A dilution of DMSO was included as a control. The assay plate was set up as follows with each well in duplicate: 75 μL assay buffer+10 μL ENPP1 inhibitor or DMSO Dilutions+10 μL Substrate+5 μL Enzyme (5 ng). Both the enzyme and substrate were added to opposite sides of the well to ensure that there was no interaction until all wells had both components. The plate was then centrifuged gently for 10 seconds, followed by an incubation at 37° C. for 45 minutes. The reaction was quantified by measuring absorbance at 405 nm using the Envision Plate Reader.

ENPP1 protein [3] = target: T2, ENPP1 protein (Homo sapiens (Human), UniProt P22413); assay: ENPP1 Inhibition Assay (thymidine 5′-monophosphate p-nitrophenol ester substrate); format: biochemical
Method: Assay Buffer: 1 mM CaCl2, 0.2 mM ZnCl2, 50 mM Tris, pH 9.0. Substrate: 8 mM Thymidine 5′-monophosphate p-nitrophenol ester sodium salt (Sigma Cat #T4510). Enzyme: 5 ng/L Recombinant Human ENPP-1 Protein (R&D Cat #6136-EN-010) in DMSO in 96-well clear assay plates
as §1, with “An eight” for “A ten”, “81” for “75”, “DMSO+5” for “DMSO Dilutions+10”, “Substrate+4” for “Substrate+5”, “Enzyme.” for “Enzyme (5 ng).”, “Envision.” for “Envision Plate Reader.”
IC50 values are determined using GraphPad Prism 5 software. The data were entered as an X-Y plot into the software as percent inhibition for each concentration of the drug. The concentration values of the drug were log transformed and the nonlinear regression was carried out using the “sigmoidal dose-response (variable slope)” option within the GraphPad software to model the data and calculate IC50 values. The IC50 values reported are the concentration of drug at which 50% inhibition was reached.

Saos-2 Cells = assay: ENPP1 Mineralization Assay; format: cell-based
Method: Saos-2 Cells (ATCC CAT #HTB-85). Culture Medium. 24-well Tissue Culture Plate. Ascorbic Acid, 5 mg/mL (100×). β-Glycerophosphate, 1M (100×). Phosphate Buffered Saline. Alizarin Red, 40 mM pH 4.2. 70% Ethanol. Dye Extraction Reagent, 10% Methanol+10% Acetic Acid
Saos-2 cells were plated at a density of 1.5×10^6 cells/well and allowed to grow to 100% confluency over the following 1-2 days. Once completely confluent, the media was replaced with fresh media supplemented with 1× ascorbic acid, 1× β-glycerophosphate, and varying concentrations of ENPP1 inhibitor (if applicable). The addition of the mineralization components was considered Day 1. On Day 3, the media was gently aspirated with no wash followed by the addition of fresh media, mineralization components, and ENPP1 inhibitor (if applicable). On day 5, the media was gently aspirated and the cells were washed twice with PBS. The cells were then fixed with ice cold 70% ethanol for 1 hour at 4° C. Cells were washed once with PBS and stained with Alizarin Red for 30 minutes at room temperature with gentle rotation. Stained cells were washed three times with water for 10 minutes at room temperature with gentle rotation. After imaging cells, dye extraction reagent was added to each well and incubated for 30 minutes at room temperature. Alizarin red was quantified by measuring absorbance at a wavelength of 405 nm using the Envision.
FIG. 9 depicts a picture of results of a similar SAOS-2 mineralization assay. SAOS-2 cell were cultured in the presence and absence of ENPP1 inhibitor (compound 78, 107-02 or 108) and exposed to mineralization components for 3 days.

ENPP1 protein [4] = target: T2, ENPP1 protein; assay: ENPP1 Thermal Shift Assay (Example 1); format: binding
Method: Assay Buffer (1 mM CaCl2, 0.2 mM ZnCl2, 50 mM Tris, pH 9.0) 5000×SYPRO Orange (ThermoFisher cat #S6651) 384-well PCR Plates
Each drug was prepared as a 10× solution in the assay buffer and SYPRO Orange was diluted to 10× concentration in water. Wells were set up in duplicate in a 384-well PCR plate as follows: 14 μL assay buffer, 2 μL ENPP1 Inhibitor or DMSO, 2 μL (0.5 μg) ENPP1 protein. Each well was mixed and incubated on ice for 5 minutes. Post incubation, 2 μL of SYPRO Orange was mixed into each well and followed by a gentle centrifugation. The protein melt reaction was run using ViiA7 software with temperatures beginning at 25° C. and increasing by 0.05° C./s to the maximum temperature of 99° C.
In a 384-well plate, 1.0 μg of ENPP1 protein incubated with 100 μM of the corresponding drug for 5 minutes. Each well exposed to increasing temperatures to determine an unfolding temperature of the protein.

[5] = FIG. 5B, ATP substrate, read-out: IC50
[6] = Table 5, ATP substrate, read-out: ENPP1 (IC50 μM) ATP
[7] = FIG. 5A, TMP substrate, read-out: IC50
[8] = Table 5, TMP substrate, read-out: ENPP1 (IC50 μM) TMP

T1 sequence (P22413 whole entry, looked up): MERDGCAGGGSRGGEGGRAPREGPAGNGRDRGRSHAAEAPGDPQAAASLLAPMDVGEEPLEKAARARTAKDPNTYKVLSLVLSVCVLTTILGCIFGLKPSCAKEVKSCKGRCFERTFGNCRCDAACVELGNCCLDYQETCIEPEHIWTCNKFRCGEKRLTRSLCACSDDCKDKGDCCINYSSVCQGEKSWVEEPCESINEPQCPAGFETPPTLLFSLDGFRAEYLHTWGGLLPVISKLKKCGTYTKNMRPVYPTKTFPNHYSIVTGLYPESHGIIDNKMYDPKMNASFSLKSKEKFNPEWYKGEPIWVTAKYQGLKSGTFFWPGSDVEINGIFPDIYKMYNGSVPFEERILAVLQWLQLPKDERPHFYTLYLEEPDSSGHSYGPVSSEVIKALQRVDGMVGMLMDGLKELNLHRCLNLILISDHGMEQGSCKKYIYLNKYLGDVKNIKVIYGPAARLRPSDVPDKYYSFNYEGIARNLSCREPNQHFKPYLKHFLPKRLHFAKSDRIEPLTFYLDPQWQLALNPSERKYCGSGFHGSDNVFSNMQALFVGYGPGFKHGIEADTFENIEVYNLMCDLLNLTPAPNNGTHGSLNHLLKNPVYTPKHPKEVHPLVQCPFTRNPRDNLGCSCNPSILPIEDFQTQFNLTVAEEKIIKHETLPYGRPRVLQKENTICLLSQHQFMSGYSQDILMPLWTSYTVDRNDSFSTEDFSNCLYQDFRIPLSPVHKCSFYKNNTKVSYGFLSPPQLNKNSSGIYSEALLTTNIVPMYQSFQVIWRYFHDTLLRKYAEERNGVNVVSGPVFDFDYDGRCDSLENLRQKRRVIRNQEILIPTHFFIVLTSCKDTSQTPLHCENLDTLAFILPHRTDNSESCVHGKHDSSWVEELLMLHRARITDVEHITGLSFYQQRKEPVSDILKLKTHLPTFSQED
T2 sequence (P22413 whole entry, looked up, change not shown): as the sequence (P22413 whole entry, looked up) above

| IC50 [2, 8] | Compound | IC50 [1, 6] | also measured |
| --- | --- | --- | --- |
| > 50 µM | COc1ccc(NC(=O)CSc2nc3c(C)c(C#N)ncc3[nH]2)cc1S(C)(=O)=O [Compound 103, 2-((6-cyano-7-methyl-3H-imidazo[4,5-c]pyridin-2-yl)thio)-N-(4-methoxy-3-(methylsulfonyl)phenyl)acetamide] | – | – |
| 22.3 µM | COc1ccc(NC(=O)CSc2nc3c(C)c(C#N)ncc3[nH]2)cc1OCC1CCN(C)CC1 [Compound 111, 2-((6-cyano-7-methyl-3H-imidazo[4,5-c]pyridin-2-yl)thio)-N-(4-methoxy-3-((1-methylpiperidin-4-yl)methoxy)phenyl)acetamide hydrochloride] | – | – |
| 22.2 µM | COc1ccc(NC(=O)CSc2nc3c(C)c(C#N)ncc3[nH]2)cc1O[C@H]1CC[C@H](N)CC1 [Compound 113, N-(3-(((1r,4r)-4-aminocyclohexyl)oxy)-4-methoxyphenyl)-2-((6-cyano-7-methyl-3H-imidazo[4,5-c]pyridin-2-yl)thio)acetamide Hydrochloride] | – | – |
| > 50 µM | COc1nc(NC(=O)CSc2nc3c(C)c(C#N)ncc3[nH]2)ccc1O [Compound 96, 2-((6-cyano-7-methyl-3H-imidazo[4,5-c]pyridin-2-yl)thio)-N-(5-hydroxy-6-methoxypyridin-2-yl)acetamide] | – | – |
| 3.61 µM | COc1ccc(NC(=O)CSc2nc3c(C)c(C#N)ncc3[nH]2)cc1OCCO [Compound 109, 2-((6-cyano-7-methyl-3H-imidazo[4,5-c]pyridin-2-yl)thio)-N-(3-(2-hydroxyethoxy)-4-methoxyphenyl)acetamide] | 3.26 µM | – |
| > 50 µM | Cc1c(C#N)ncc2[nH]c(SCC(=O)Nc3ccc(F)c(OCCO)c3)nc12 [Compound 110, 2-((6-cyano-7-methyl-3H-imidazo[4,5-c]pyridin-2-yl)thio)-N-(4-fluoro-3-(2-hydroxyethoxy)phenyl)acetamide] | – | – |

More lines, now with the values behind:

| Compound | IC50 [2, 8] | IC50 [1, 6] | also measured |
| --- | --- | --- | --- |
| COc1ccc(NC(=O)c2cnc(CSc3nc4c(C)c(C#N)ncc4[nH]3)s2)cc1O [Compound 115, sodium 5-(2-(((6-cyano-7-methyl-3H-imidazo[4,5-c]pyridin-2-yl)thio)methyl)thiazole-5-carboxamido)-2-methoxyphenolate] | 1.61 µM | 0.196 µM | IC50 [1, 5]: 0.191 µM; IC50 [2, 7]: 1.61 µM |
| Cc1c(C#N)ncc2[nH]c(SCC(=O)Nc3ccc(F)c(S(N)(=O)=O)c3)nc12 [Compound 104, 2-((6-cyano-7-methyl-3H-imidazo[4,5-c]pyridin-2-yl)thio)-N-(4-fluoro-3-sulfamoylphenyl)acetamide] | 2.85 µM | – | – |
| O=C(CSc1nc2cc(Cl)ncc2[nH]1)Nc1ccc2c(c1)OCO2 [Compound 7, N-(benzo[d][1,3]dioxol-5-yl)-2-((6-chloro-1H-imidazo[4,5-c]pyridin-2-yl)thio)acetamide] | – | – | IC50 (ENPP1 protein [3]; Tables 3 and 4, read-out: ENPP1 inhibition (IC50)): > 50000 nM |
| COc1ccc(NC(=O)CSc2nc3c(C)c(C#N)ncc3[nH]2)cc1OP(=O)(O)O [Compound 107, Sodium 5-(2-((6-cyano-7-methyl-3H-imidazo[4,5-c]pyridin-2-yl)thio)acetamido)-2-methoxyphenyl phosphate] | – | – | IC50 [1, 5]: 0.116 µM; IC50 ([1]; Table 5, ATP substrate, phosphate, read-out: ENPP1 (IC50 μM) ATP): 0.116 µM; IC50 [2, 7]: 0.232 µM; IC50 ([2]; Table 5, TMP substrate, phosphate, read-out: ENPP1 (IC50 μM) TMP): 0.231 µM |
| COc1ccc(NC(=O)CSc2nc3cc(C#N)ncc3[nH]2)cc1OC [Compound 68, 2-((6-Cyano-3H-imidazo[4,5-c]pyridin-2-yl)thio)-N-(3,4-dimethoxyphenyl)acetamide] | – | – | inhibiting ENPP1 ability to produce mineralized nodules (Saos-2 Cells; FIG. 4, normalized against DMSO control): effective; inhibiting the activity of ENPP1 (ENPP1 protein [3]; FIG. 1): effective; IC50 (ENPP1 protein [3]; Table 1, FIG. 1, read-out: IC50): 114 nM |
| COc1ccc(NC(=O)CSc2nc3c(C)c(C#N)ncc3[nH]2)cc1N1CCC(O)CC1 [Compound 112, 2-((6-cyano-7-methyl-3H-imidazo[4,5-c]pyridin-2-yl)thio)-N-(3-(4-hydroxypiperidin-1-yl)-4-methoxyphenyl)acetamide hydrochloride] | > 50 µM | > 50 µM | – |
| COc1cc(NC(=O)CSc2nc3c(C)c(C#N)ncc3[nH]2)ccc1OP(=O)([O-])[O-].[Na+].[Na+] [Compound 108, sodium 4-(2-((6-Cyano-7-methyl-3H-imidazo[4,5-c]pyridin-2-yl)thio)acetamido)-2-methoxyphenyl phosphate] | 2.04 µM | 0.339 µM | total mineralization (Saos-2 Cells; FIG. 9, mineralization components for 3 days): significant decrease; Tm (° C.) (ENPP1 protein [4]; Table 2, FIG. 7, 100 μM drug, 1.0 μg ENPP1, NT 60.05): 63.60 °C; ΔTm at 100 µM (ENPP1 protein [4]; read-out: ΔTm (° C.)): 3.54 °C; IC50 [1, 5]: 0.339 µM; IC50 [2, 7]: 2.04 µM |
| COc1ccc(NC(=O)CSc2nc3c(C)c(C#N)ncc3[nH]2)cc1N[C@H]1CC[C@H](N)CC1 [Compound 114, N-(3-(((1r,4r)-4-aminocyclohexyl)amino)-4-methoxyphenyl)-2-((6-cyano-7-methyl-3H-imidazo[4,5-c]pyridin-2-yl)thio)acetamide hydrogen chloride] | > 50 µM | > 50 µM | – |
